Assay [1] addresses T1, thrombin (Bos taurus, UniProt P00735).
T1 construct: purchased
The assay can be described thus: Inhibition of thrombin amidase activity (chromogenic substrate N-benzoyl-D-phenylalanyl-L-valyl-L-arginyl-p-nitroanilide). Format: biochemical. How it is done: The data in the table were obtained in an assay in which thrombin hydrolyzes the chromogenic substrate, N-benzoyl-D-phenylalanyl-L-valyl-L-arginyl-p-nitroanilide.
The assay was carried out in 50 µl buffer (0.03M Tris, 0.15M NaCl, pH 7.4) with 25 µl of thrombin solution (0.21 mg/ml of thrombostat powder in 0.06 M Tris, 0.3M NaCl, pH 7.4) and 150 µl of an aqueous solution of the chromogenic substrate at a concentration of 0.25 mg/ml. Solutions of test compound (25 µl) at various concentrations were added. […] Standard curves were constructed by plotting free thrombin concentration against hydrolysis rate. […] The amount of free inhibitor in each assay was calculated by subtracting the number of moles of bound thrombin from the number of moles of added inhibitor (test compound).
The Kass value is the hypothetical equilibrium constant for the reaction between thrombin and the test compouhnd (I). Thrombin + I ⇄ Thrombin - I [formula] Kass =([Thrombin I])/([ (Thrombin) x (I) ]) [formula]
Kass was calculated for a range of concentrations of test compounds and the mean value is reported in units of liter per mole.

Assay [2] has as its system plasma. The assay is described as follows: Plasma coagulation assay: prothrombin time. Format: biochemical. The following applies: thromboplastin (Dade). Here is the method: (§1) The numerical values in the table are the concentrations of the test compounds (ng/ml) required to prolong coagulation by 2-fold in the three tests. The thrombin time evaluation was carried out in plasma and separately determined in a buffer system at […].
(§2) The data presented in Table 2 were obtained using a CoaScreener instrument from Tecan, Inc. in the assay protocols listed below. Prothrombin Time: 50 µl plasma 50 µl saline 7 µl test solution 50 µl thromboplastin (Dade) Thrombin Time: 50 µl plasma 50 µl saline 7 µl test compound 50 µl bovine thrombin (2 NIH unit/ml) In the Thrombin Time determined in pH 7.4 buffer fibrinogen was used instead of plasma. APTT: 50 µl plasma 50 µl Actin (Dade) 7 µl test solution 50 µl CaCl2 (0.01M).

Assay [3] deals with T2, bovine thrombin (Bos taurus, UniProt P00735).
T2 construct: 50 µl bovine thrombin (2 NIH unit/ml)
The assay is described as follows: Plasma coagulation assay: thrombin time. The following applies: plasma, bovine thrombin (2 NIH unit/ml); for EC (2-fold clotting time): read-out: Thrombin Time: concentration of test compounds required to prolong coagulation by 2-fold. Format: biochemical. Here is the method:
as §1, §2

Assay [4] concerns plasma. The assay is described as follows: Plasma coagulation assay: activated partial thromboplastin time (APTT). Format: biochemical. The following applies: Actin (Dade), CaCl2. Here is the method:
as §1, §2

For assay [5], the target named is T2, bovine thrombin. The assay can be described thus: Thrombin time in buffer (fibrinogen instead of plasma). Format: biochemical. Particulars: buffer pH 7.5, fibrinogen instead of plasma; for EC (2-fold clotting time): read-out: Buffer (pH 7.5) Thrombin Time: concentration of test compounds required to prolong coagulation by 2-fold. Here is the method:
as §1, §2

The test system of assay [6] is Arterial Thrombosis in the Rat. The assay can be described thus: FeCl3-induced arterial thrombosis in the carotid artery of the rat. Particulars: infusion from 15 min before to 60 min after FeCl3 application, NA = Not active at 4 mg/kg/h or at 7 mg/kg/h, the highest doses tested. Format: in vivo.
Experimental: The antithrombotic activity of representative compounds of the invention was determined in in vivo tests carried out in the rat. The test employed induced arterial thrombosis in the carotid artery of the rat and measured the infusion dose of test compound required to maintain blood flow for fifty minutes past the time of occlusion. The test was performed as follows.
Arterial thrombosis was induced in the rat by injury of the carotid artery. Topical application of a ferric chloride solution was used to injure the vessel. […] Animals were laid on a water blanket in which the circulated water was maintained at 37° C. The carotid artery was approached through a midline cervical incision. Careful blunt dissection was used to expose and isolate the vessel from the carotid sheath. A silk suture was pulled underneath the artery to lift the vessel to provide clearance to insert a thermocouple underneath it. […] The discs were cut to equal size using sharpened stainless steel tubing (3 mm i.d.) chucked in a drill press. A saturated disc was placed on each carotid artery above the thermocouple. The time between FeCl3 application and the time at which temperature decreased abruptly was recorded as time to occlusion (TTO) of the vessel. The average time required for both vessels to occlude was used to represent TTO for each animal.
Test compounds were dissolved in isotonic saline. A syringe pump was used to infuse drug solutions starting 15 min before FeCl3 application and continuing for 60 min after FeCl3 application. Dose-response curves were plotted to determine the relationship between the log10 of the infused doses and the TTO of the injured arteries.
The association between vessel occlusion and the abrupt temperature decrease was established by simultaneously recording the temperature and blood flow on the same recorder. A pulsed Doppler flow probe was placed around the carotid artery proximal to the thermocouple. […] Results were reported as percent change from initial baseline values (6 min before occlusion). The time at which vessel temperature decreased rapidly was arbitrarily established as zero and pre- and post-occlusion temperature and flow values were referenced from that point.
[7] abbreviates: Thrombin Amidase Kass, apparent equilibrium (association) constant, mean over a range of concentrations, pH 7.4, acetate salts unless indicated otherwise.
Where [8] appears, read: apparent equilibrium (association) constant, mean over a range of concentrations, pH 7.4, acetate salts unless indicated otherwise, read-out: Thrombin Amidase Kass (converted).

Values joined by “and” are separate entries in the source; they are usually repeats but may differ in a detail not shown here. Equal values may be shown once. Where a name gives a salt, the structure may show the parent alone. Read-outs that look alike come from different tables or passages of the source. Square brackets hold non-standard residues; d marks the D form. Peptide text beside a SMILES is read from it. * marks the point of attachment. dNMePhg = CN[C@@H](C(=O)O)c1ccccc1; dHpg = N[C@@H](C(=O)O)c1ccc(O)cc1; dChg = N[C@@H](C(=O)O)C1CCCCC1; dPhg = N[C@@H](C(=O)O)c1ccccc1; Boc = CC(C)(C)OC(=O)*

Take `CC(C)(C)OC(=O)N[C@@H](C(=O)N1CCC[C@H]1C(=O)N[C@H](C=O)CCCN=C(N)N)c1ccccc1` [N-Boc-D-phenylglycyl (sulfate salt), N-Boc-D-Phenylglycyl-L-Prolyl-L-Arginine aldehyde (Boc-D-Phg-Pro-Arg-H) hemisulfate] (Boc-[dPhg]-Pro-Arg-aldehyde): in assay [1] (setting [7]), the Kd is 0.00935 µM.

On to `COc1ccc([C@@H](NC(C)=O)C(=O)N2CCC[C@H]2C(=O)N[C@H](C=O)CCCNC(=N)N)cc1` [N-Acetyl-D-(4-methoxy)phenylglycyl], for which the “Prothrombin Time: concentration of test compounds required to prolong coagulation by 2-fold” value (from here on “Prothrombin Time: concentration … by 2-fold”) in assay [2] is 900 ng/mL. Also, the EC (2-fold clotting time) in assay [3] came out at 0.16 µg/mL. In addition, the “APTT: concentration of test compounds required to prolong coagulation by 2-fold” value (“APTT: concentration … by 2-fold” for short) in assay [4] amounted to 2600 ng/mL. Also, the Kd in assay [1] (setting [7]) was 0.0645 µM.

`CC(C)(C)OC(=O)N[C@@H](C(=O)N1CCC[C@H]1C(=O)N[C@H](C=O)CCCN=C(N)N)c1ccccc1` [N-Boc-D-phenylglycyl, N-(t-Butyloxycarbonyl)-D-phenylglycyl-L-Prolyl-L-Arginine aldehyde (Boc-D-Phg-Pro-Arg-H) diacetate salt] (Boc-[dPhg]-Pro-Arg-aldehyde): in assay [1] (setting [7]), the Kd was 0.0114 µM and 0.0137 µM.

In the case of `CN[C@@H](C(=O)N1CCC[C@H]1C(=O)N[C@H](C=O)CCCNC(=N)N)c1ccccc1` [N-Methyl-D-phenylglycyl, N-methyl-D-phenylglycyl-L-prolyl-L-arginine aldehyde] (H-[dNMePhg]-Pro-Arg-aldehyde), the “Prothrombin Time: concentration … by 2-fold” value in assay [2] was found to be 899 ng/mL. The EC (2-fold clotting time) came to 0.092 µg/mL in assay [3] and 0.067 µg/mL in assay [5]. Further, the “APTT: concentration … by 2-fold” value in assay [4] was >909 ng/mL. The Kd in assay [1] (setting [7]) was 0.0109 µM.

Regarding `CC[C@@H](C(=O)N1CCC[C@H]1C(=O)N[C@H](C=O)CCCNC(=N)N)c1ccccc1` [(R)-α-Ethylphenylacetyl], the “Prothrombin Time: concentration … by 2-fold” value in assay [2] was found to be 700 ng/mL. Also, the “APTT: concentration … by 2-fold” value in assay [4] came to 2275 ng/mL. In addition, the Kd in assay [1] (setting [8]) was 0.133 µM.

As for `CC(C)(C)OC(=O)N[C@@H](C(=O)N1CCC[C@H]1C(=O)N[C@H](C=O)CCCN=C(N)N)C1CCCCC1` [N-Boc-D-cyclohexylglycyl] (Boc-[dChg]-Pro-Arg-aldehyde), the Kd in assay [1] (setting [7]) was 0.00833 µM.

For the compound `N=C(N)NCCC[C@@H](C=O)NC(=O)[C@@H]1CCCN1C(=O)C1NCCc2ccccc21` (mixture of isomers), the Kd in assay [1] (setting [7]) was 0.0114 µM.

As for `N=C(N)NCCC[C@@H](C=O)NC(=O)[C@@H]1CCCN1C(=O)[C@H](N)c1ccccc1` [D-Phenylglycyl, D-Phg-L-Pro-L-Arg-H] (H-[dPhg]-Pro-Arg-aldehyde), in assay [2], the “Prothrombin Time: concentration … by 2-fold” value stood at 91 ng/mL. In addition, in assay [3], the EC (2-fold clotting time) was 0.091 µg/mL. Besides, in assay [4], the “APTT: concentration … by 2-fold” value was determined as 1139 ng/mL.

Regarding `NC(N)=NCCC[C@@H](C=O)NC(=O)[C@@H]1CCCN1C(=O)[C@H](N)c1ccccc1` [D-Phenylglycyl, D-Phg-L-Pro-L-Arg-H] (H-[dPhg]-Pro-Arg-aldehyde), the Kd in assay [1] (setting [7]) is 0.0133 µM.

In the case of `C[C@@H](C(=O)N1CCC[C@H]1C(=O)N[C@H](C=O)CCCNC(=N)N)c1ccccc1` [(R)-α-Methylphenylacetyl], the Kd in assay [1] (setting [8]) was 0.0909 µM.

In the case of `CN(C(=O)OC(C)(C)C)[C@@H](C(=O)N1CCC[C@H]1C(=O)N[C@H](C=O)CCCNC(=N)N)c1ccccc1` [N-Boc-N-methyl-D-phenylglcyl] (Boc-[dNMePhg]-Pro-Arg-aldehyde), the “Prothrombin Time: concentration … by 2-fold” value in assay [2] was determined as 300 ng/mL. The EC (2-fold clotting time) in assay [3] amounted to 0.3 µg/mL. Also, in assay [4], the “APTT: concentration … by 2-fold” value came to 4545 ng/mL. Further, the Kd in assay [1] (setting [7]) is 0.192 µM.

As for `CO[C@@H](C(=O)N1CCC[C@H]1C(=O)N[C@H](C=O)CCCNC(=N)N)c1ccccc1` [(R)-α-Methoxyphenylacetyl], in assay [2], the “Prothrombin Time: concentration … by 2-fold” value is >909 ng/mL. Also, in assay [4], the “APTT: concentration … by 2-fold” value is >909 ng/mL. For the same compound, the Kd in assay [1] (setting [8]) was 0.238 µM.

Turning to `CC(C)(C)OC(=O)N[C@@H](C(=O)N1CCC[C@H]1C(=O)N[C@H](C=O)CCCN=C(N)N)c1ccc(O)cc1` [N-Boc-D-(4-hydroxy)phenylglycyl, N-Boc-D-(4-hydroxyphenylglycyl)-Pro-Arg-H diacetate] (Boc-[dHpg]-Pro-Arg-aldehyde), the Kd in assay [1] (setting [7]) is 0.0087 µM.

For `C[C@H](C(=O)N1CCC[C@H]1C(=O)N[C@H](C=O)CCCNC(=N)N)c1ccccc1` [(S)-α-Methylphenylacetyl], in assay [1] (setting [8]), the Kd was 5 µM.

For the compound `CC(C)(C)OC(=O)N[C@@H](C(=O)N1CCC[C@H]1C(=O)N[C@H](C=O)CCCNC(=N)N)C1CCCCC1` [N-Boc-D-cyclohexylglycyl] (Boc-[dChg]-Pro-Arg-aldehyde), in assay [2], the “Prothrombin Time: concentration … by 2-fold” value amounted to 522 ng/mL. Besides, the EC (2-fold clotting time) in assay [3] came out at 0.079 µg/mL; in assay [5] it was 0.06 µg/mL. Also, the “APTT: concentration … by 2-fold” value in assay [4] was found to be 748 ng/mL. For the same compound, the “ED50 (infusion dose required to maintain blood flow for 50 min)” value in assay [6] is 11.3 mg/kg/h.

Take `CC(C)(C)OC(=O)N1CCc2ccccc2C1C(=O)N1CCC[C@H]1C(=O)N[C@H](C=O)CCCNC(=N)N` (mixture of isomers) [Boc-1,2,3,4-tetrahydroisoquinolin-1-ylcarbonyl-Pro-Arg-H]: the Kd in assay [1] (setting [7]) is 0.263 µM.

`CC(C)(C)OC(=O)N[C@@H](C(=O)N1CCC[C@H]1C(=O)N[C@H](C=O)CCCNC(=N)N)c1cccs1` [N-Boc-D-2-thienyiglycyl]: in assay [1] (setting [7]), the Kd is 0.0714 µM.

On to `COc1ccc2cc([C@@H](NC(=O)OC(C)(C)C)C(=O)N3CCC[C@H]3C(=O)N[C@H](C=O)CCCNC(=N)N)ccc2c1` [N-Boc-D-(6-methoxy)-2-naphthylglycyl], for which, in assay [2], the “Prothrombin Time: concentration … by 2-fold” value was 35489 ng/mL. Besides, the EC (2-fold clotting time) came out at 0.46 µg/mL in assay [3] and 0.466 µg/mL in assay [5]. The “APTT: concentration … by 2-fold” value in assay [4] turned out to be 2239 ng/mL. Further, in assay [1] (setting [7]), the Kd was 0.164 µM.

With `COc1ccc([C@@H](NC(=O)OC(C)(C)C)C(=O)N2CCC[C@H]2C(=O)N[C@H](C=O)CCCNC(=N)N)cc1` [N-Boc-D-(4-methoxy)phenylglycyl], the EC (2-fold clotting time) in assay [3] came to 0.08 µg/mL. Moreover, the “APTT: concentration … by 2-fold” value in assay [4] is 640 ng/mL. In addition, the Kd in assay [1] (setting [7]) is 0.0133 µM.

For the compound `CC(C)(C)OC(=O)N[C@@H](C(=O)N1CCC[C@H]1C(=O)N[C@H](C=O)CCCNC(=N)N)c1ccc2ccccc2c1` [N-Boc-D-2-naphthylglycyl, N-Boc-D-2-naphthylglycyl-Pro-Arg-H diacetate], the “Prothrombin Time: concentration … by 2-fold” value in assay [2] was 1200 ng/mL. Moreover, the “Thrombin Time: concentration of test compounds required to prolong coagulation by 2-fold” value in assay [3] worked out at 230 ng/mL. Also, the “APTT: concentration … by 2-fold” value in assay [4] was 1200 ng/mL. In addition, the “Buffer (pH 7.5) Thrombin Time: concentration of test compounds required to prolong coagulation by 2-fold” value in assay [5] was 142 ng/ml. In assay [1], this compound showed a Kd of 0.045 µM.

As to `CC(C)(C)OC(=O)N[C@@H](C(=O)N1CCC[C@H]1C(=O)N[C@H](C=O)CCCNC(=N)N)c1ccc(O)cc1` [N-Boc-D-(4-hydroxy)phenylglycyl, N-Boc-D-(4-hydroxyphenylglycyl)-Pro-Arg-H diacetate] (Boc-[dHpg]-Pro-Arg-aldehyde), the “Prothrombin Time: concentration … by 2-fold” value in assay [2] worked out at 1636 ng/mL. Moreover, in assay [3], the EC (2-fold clotting time) was 0.182 µg/mL. In assay [4], the “APTT: concentration … by 2-fold” value is 1091 ng/mL.

On to `CC(C)(C)OC(=O)NC(C(=O)N1CCC[C@H]1C(=O)N[C@H](C=O)CCCNC(=N)N)c1ccc(Cl)c(Cl)c1` (mixture of isomers) [N-Boc-DL-(3,4-dichloro)phenylglycyl], for which the Kd in assay [1] (setting [7]) was 0.025 µM.

For the origin of these results see patent publication EP0837071A1, “Tripeptide antithrombotic agents” (ELI LILLY AND COMPANY, priority 1990, dated 1992).
